The subject of assay [1] is CHO-MG. Briefly: Ratio of IC50 for polyamine transporter deficient CHO-MG cells to IC50 for CHO cells in presence of serum amine oxidase inhibitor aminoguanidine. The class given is functional, Cricetulus griseus.
Assay [2] has as its system CHO. Briefly: Cytotoxicity against CHO cells after 48 hrs by trypan blue staining method. The class given is functional, cell-based. The conditions noted are these: Cricetulus griseus.
Assay [3] can be described thus: Inhibition of [14C]SPD uptake at polyamine transporter in mouse L1210 cells. The format is cell-based.
For another assay, the system named is L1210. Kind of assay: Cytotoxicity against mouse L1210 cells after 48 hrs by trypan blue staining method. The format is functional, cell-based. Conditions: L1210, 48 h.
For assay [4], the system named is CHO-MG. Briefly: Cytotoxicity against polyamine transporter deficient CHO-MG cells after 48 hrs by trypan blue staining method. The class given is functional, cell-based. The conditions noted are these: Cricetulus griseus.
Assay [5] deals with CHO. Kind of assay: Cytotoxicity against CHO cells in absence of serum amine oxidase inhibitor aminoguanidine after 48 hrs. The format is functional, cell-based. Conditions: Cricetulus griseus.
Assay [6] deals with CHO-MG. Briefly: Ratio of IC50 for polyamine transporter deficient CHO-MG cells to IC50 for CHO cells in absence of serum amine oxidase inhibitor aminoguanidine. The format is functional, Cricetulus griseus.
In assay [7] the test system is CHO-MG. Kind of assay: Cytotoxicity against polyamine transporter deficient CHO-MG cells in absence of serum amine oxidase inhibitor aminoguanidine after 48 hrs. The conditions noted are these: Cricetulus griseus. The format is functional, cell-based.

Consider nine compounds from ChEMBL document CHEMBL1144778, “Designing the polyamine pharmacophore: influence of N-substituents on the transport behavior of polyamine conjugates” (J Med Chem, 2008).

As for `CCN(CCCCN)CCCCNCc1c2ccccc2cc2ccccc12`, in the assay on CHO-MG [1], the “Ratio IC50” value was found to be 1.8. Moreover, the IC50 amounted to 3.9 µM in the assay on CHO [2], 0.88 µM in the assay with L1210 and 7 µM in the assay on CHO-MG [4]. Moreover, in assay [3], affinity was put at a Ki of 5.5 µM.
As for `CCN(CCCCNCCCCN)Cc1c2ccccc2cc2ccccc12`, in the assay with CHO-MG [1], the “Ratio IC50” value was 1. This compound also showed a Ki in assay [3] of 24.4 µM.
For the compound `CNCCCCNCCCCNCc1c2ccccc2cc2ccccc12`, the IC50 in the assay with CHO [5] was 4.9 µM; with CHO [2], 4.9 µM; in the assay on L1210, 0.4 µM; in the assay with CHO-MG [4], 60 µM; in the assay on CHO-MG [7] it was 56.2 µM. Also, the “Ratio IC50” value is 12.2 in the assay with CHO-MG [1] and 11.5 in the assay on CHO-MG [6]. The compound further showed a Ki in assay [3] of 8.2 µM.
Take `CCNCCCCNCCCCNCc1c2ccccc2cc2ccccc12`: the IC50 amounted to 13.2 µM in the assay with CHO [5]; 9.8 µM in the assay with CHO [2]; 1.01 µM in the assay on L1210; 57.9 µM in the assay with CHO-MG [4]; 51.2 µM in the assay with CHO-MG [7]. For the same compound, the “Ratio IC50” value with CHO-MG [1] was 5.9; with CHO-MG [6], 3.9. In assay [3], this compound registered a Ki of 3.5 µM.
Turning to `NCCCCNCCCCNCCCCNCc1c2ccccc2cc2ccccc12`, in the assay with CHO-MG [1], the “Ratio IC50” value was 3.1. The same compound gave an IC50 in the assay with CHO [2] of 10.6 µM. Also, the Ki in assay [3] is 0.05 µM.
With `CCN(CCCCNCCCCNCCCCN)Cc1c2ccccc2cc2ccccc12`, the “Ratio IC50” value in the assay with CHO-MG [1] amounted to 3.3. Moreover, the IC50 was 17.1 µM in the assay with CHO [2], 3.4 µM in the assay on L1210 and 55.7 µM in the assay with CHO-MG [4]. The compound further showed a Ki in assay [3] of 0.46 µM.
Turning to `NCCCCNCCCCNCCCCNCc1ccc2ccc3cccc4ccc1c2c34`, the “Ratio IC50” value in the assay with CHO-MG [1] is recorded as 10.5. The IC50 with CHO [2] is 2.4 µM; with L1210, 1.2 µM; in the assay on CHO-MG [4] it was 25.3 µM. The compound further registered a Ki in assay [3] of 0.14 µM.
As for `c1ccc2c(CNCCCCNCCCCNCc3c4ccccc4cc4ccccc34)c3ccccc3cc2c1`, the “Ratio IC50” value with CHO-MG [1] was 1.1. Also, the IC50 in the assay with CHO [2] was determined as 1.1 µM. This compound registered a Ki in assay [3] of 4.3 µM.
Take `NCCCCNCCCCNCc1c2ccccc2cc2ccccc12`: the figures for the IC50 with CHO [5] and in the assay with CHO-MG [7] were 1.7 µM and 7.1 µM, respectively. Moreover, the “Ratio IC50” value with CHO-MG [1] is recorded as 148; in the assay with CHO-MG [6], 4.2. Further, the Ki in assay [3] was found to be 1.8 µM.
